Measurements reported in patent publication US11299467B2 (Antabio SAS, priority 2017, dated 2022).
pKi: −log10 of the molar value. Read-outs that look alike come from different tables or passages of the source.

Columns and labels:
[1] = Plasma stability of test compounds in human plasma; assay type: in vitro ADME; settings: 1 μM, 37° C.
Description: [table] Test compound and QC compound were incubated at a final concentration of 1 μM in plasma at 37° C. in shaker water bath with gentle shaking. At predetermined time points, reaction was terminated with 200 μL of acetonitrile containing internal standard and centrifuged at 4000×RCF, 4° C. for 20 minutes. Supernatant was separated and analyzed by LC-MS/MS. The following equation was used to determine the percentage remaining of test/QC compound following the procedure above: […]

[2] = Plasma protein binding, rapid equilibrium dialysis, human plasma; assay type: in vitro ADME; settings: 100% plasma, 5 h equilibrium dialysis
Description: [table] Test compound was spiked in plasma to a final concentration of 10 μM. An aliquot of 300 μL of plasma was placed in red chamber of the insert and 500 μL of PBS was placed into white chamber of the insert. The plate was incubated at 37° C. in thermomixer at 400 rpm for 5 hours. After incubation, the samples were matrix equilibrated with opposite matrix (10 μL of plasma/100 μL of buffer sample was matched with 100 μL of blank buffer/10 μL of plasma). Matrix matched samples were precipitated with 200 μL of acetonitrile containing internal standard. Samples were vortexed at 1000 rpm for 5 min and centrifuged at 4000 rpm for 10 min. Supernatant was separated, diluted 2 fold with water and analyzed on LC-MS/MS. Blank control samples were processed immediately after the preparation of plasma working stock solutions. These samples served as a measure for calculating the % recovery of test compounds. The percent plasma bound fraction was calculated by the following equations: % Unbound=100*FC/TC % Recovery=100*(FC+TC)/T0 where • TC=Total compound concentration as determined by the calculated concentration on the plasma side of the membrane • FC=Free compound concentration as determined by the calculated concentration on the buffer side of the membrane • T0=Total compound concentration as determined before dialysis For each set of duplicates/compound, the percentage bound, percentage unbound and percentage recovery was determined.

[3] = PK study, i.v. dosing in mice; assay type: in vivo, male Swiss albino mice; settings: i.v. 1 mg/kg; for AUC / C0 / clearance: mouse, plasma, iv, male Swiss albino mice; for AUC: read-out: AUC (area under the curve); for C0: read-out: C0 (plasma concentration); for clearance: read-out: Cl (clearance)
Description: Compound A and Example 7 were dosed i.v. at 1 mg/kg to male Swiss albino mice.

NDM-1 = NDM-1 (Klebsiella pneumoniae, UniProt C7C422); test: In vitro enzyme inhibition assay, purified NDM-1 (imipenem hydrolysis, UV 299 nm); assay type: biochemical
Chain of NDM-1 (C7C422 29-270, looked up): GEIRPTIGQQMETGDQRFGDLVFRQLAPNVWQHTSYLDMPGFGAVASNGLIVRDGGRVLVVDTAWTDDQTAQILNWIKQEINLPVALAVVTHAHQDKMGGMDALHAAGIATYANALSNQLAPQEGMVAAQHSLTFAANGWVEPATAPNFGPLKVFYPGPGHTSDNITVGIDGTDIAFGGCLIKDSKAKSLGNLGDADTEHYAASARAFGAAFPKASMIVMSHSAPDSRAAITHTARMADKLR
Description: (§1) Enzyme inhibition assays were performed using purified MBL enzymes (NDM-1; VIM-1; VIM-2; IMP-1) in 10 mM HEPES buffer pH 7.5 in 96-well microtiter plates. Imipenem (300 μM) was used as substrate and its hydrolysis was followed at UV 299 nm during 10 mn every 30 seconds using a Perkin Elmer Envision UV fluorescence plate reader.
(§2) Mean Ki values from multiple experiments are presented below.
(§3) Studies were undertaken to compare the compounds of the invention with structurally similar compounds (“Comp. x”). Experiments were conducted as described above.

VIM-1 = VIM-1 (Pseudomonas aeruginosa, UniProt A0A0F7KYQ8); test: In vitro enzyme inhibition assay, purified VIM-1 (imipenem hydrolysis, UV 299 nm); assay type: biochemical
Description: as §1, §2, §3

VIM-2 = VIM-2 (Escherichia coli, UniProt Q5U7L7); test: In vitro enzyme inhibition assay, purified VIM-2 (imipenem hydrolysis, UV 299 nm); assay type: biochemical
Description: as §1, §2, §3

IMP-1 = IMP-1 (Serratia marcescens, UniProt P52699); test: In vitro enzyme inhibition assay, purified IMP-1 (imipenem hydrolysis, UV 299 nm); assay type: biochemical
Chain of IMP-1 (P52699 19-246, looked up, species assumed): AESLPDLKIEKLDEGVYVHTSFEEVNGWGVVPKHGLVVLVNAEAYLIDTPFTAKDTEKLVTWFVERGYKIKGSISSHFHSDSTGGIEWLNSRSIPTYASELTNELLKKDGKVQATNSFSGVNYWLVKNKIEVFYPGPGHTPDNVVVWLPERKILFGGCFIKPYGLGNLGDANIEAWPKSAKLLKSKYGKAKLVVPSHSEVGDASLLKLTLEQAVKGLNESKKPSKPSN
Description: as §1, §2, §3

[4] = test system: NTBC104-1 (K. pneumoniae strain expressing NDM-1 and SHV-11); test: Meropenem MIC, broth micro-dilution, NTBC104-1; assay type: cell-based; settings: 8 ug/mL of the compound
Description: The experiments were carried out using the ‘broth micro-dilution method’ according to the protocols M07-A8 established by the Clinical Laboratory Standards Institute (CLSI). Serial dilutions of the β-lactam antibiotic (Meropenem) were prepared in 96-well plates in cation-adjusted Mueller-Hinton broth (CAMHB); the concentration range was defined from 0.03 mg/L to 512 mg/L. The compounds were added at a constant concentration of 8 μg/mL. A bacterial inoculum of each strain (clinical isolates) was adjusted to a 0.5 McFarland turbidity standard in physiologic serum (0.9% NaCl), then diluted 1:100 in CAMHB and added to each well to give a final bacterial cell number of 5×10^5 CFU/well. After incubation for 18-20 hours in a heating chamber at 37° C., the growth inhibition was evaluated by the absence of any bacterial development.
Compounds of the invention were tested at a constant concentration of 8 μg/mL. The clinical strains used in these potentiation experiments were NTBC020 (E. coli strain expressing NDM-1, TEM-1 and CTX-M-15); NTBC035-2 (K. pneumoniae strain expressing NDM-1, CMY-4 and SHV-11); NTBC104-1 (K. pneumoniae strain expressing NDM-1 and SHV-11); NTBC123 (K. pneumoniae strain expressing NDM-1); NTBC018 (C. freundii strain expressing VIM-2); NTBC024 (K. pneumoniae strain expressing VIM-19, TEM-1 and CTX-M-3); NTBC042 (E. coli strain expressing VIM-1, TEM-1, CTX-M-15, SHV-12); NTBC055 (E. Coli strain expressing VIM-1); NTBC062 (K. pneumoniae strain expressing IMP-1 and TEM-1) and NTBC039 (K. oxytoca strain expressing IMP-28).
(§4) Mice were infected in the thigh with K. pneumoniae NTBC104. […] The MIC of meropenem in the presence of 8 ug/mL of the compound of Example 2 is 4 ug/mL.
Experiments were carried out using the ‘broth micro-dilution method’ according to the protocols M07-A8 established by the Clinical Laboratory Standards Institute (CLSI). […] After incubation for 18-20 hours in a heating chamber at 37° C., the growth inhibition was evaluated by the absence of any bacterial development. […]

K. pneumoniae NTBC104 = test: In vivo efficacy, mouse thigh infection with K. pneumoniae NTBC104; settings: meropenem 30 mg/kg plus compound 30 mg/kg, 9 hours post infection
Description: as §4
At the end of the experiment (9 hours post infection) the animals were sacrificed and the numbers of colony forming units (CFUs) were measured in order to quantify bacterial load (extent of the infection).

[5] = mean Ki from multiple experiments, imipenem 300 μM, Cheng-Prusoff from IC50, read-out: Ki NDM-1
[6] = mean Ki from multiple experiments, imipenem 300 μM, Cheng-Prusoff from IC50, read-out: Ki VIM-1
[7] = mean Ki from multiple experiments, imipenem 300 μM, Cheng-Prusoff from IC50, read-out: Ki VIM-2
[8] = mean Ki from multiple experiments, imipenem 300 μM, Cheng-Prusoff from IC50, read-out: Ki IMP-1

Q: Which “Stability in human plasma, % remaining” value ([1]; after 2 hours) does the source give for `NCC(=O)Nc1ccc(S(=O)(=O)Nc2scnc2C(=O)O)cc1F` [Comp. A, reference compound] here?
A: The value was 29% remaining after 2 hours.

Q: What about the fraction unbound at 5 h, 10 μM [2] of the same compound?
A: Its fraction unbound at 5 h, 10 μM is 0.097.

Q: What about the AUC [3] of the same compound?
A: Its AUC is 0.009 µg·h/mL.

Q: What about the C0 [3] of the same compound?
A: The C0 was 0.017 µg/mL.

Q: And the clearance [3]?
A: The clearance was 49.1 L/h/kg.

Q: With `N=C(N)NCC(=O)Nc1c(F)cc(S(=O)(=O)Nc2scnc2C(=O)O)cc1F` [Example 2, 5-[[3,5-difluoro-4-[(2-guanidinoacetyl)amino]phenyl]sulfonylamino]thiazole-4-carboxylic acid] as the compound, how does the pKi (NDM-1; comparative study bands, read-out: Ki NDM-1 (comparative study)) read?
A: Its pKi is greater than 7.52.

Q: And the pKi (NDM-1; [5])?
A: The pKi was greater than 7.30.

Q: What about the pKi (VIM-1; comparative study bands, read-out: Ki VIM-1 (comparative study)) of the same compound?
A: Its pKi is 6.30 to 6.52.

Q: And the pKi (VIM-1; [6])?
A: The pKi was 6.30 to 6.70.

Q: What about the pKi (VIM-2; comparative study bands, read-out: Ki VIM-2 (comparative study)) of the same compound?
A: The pKi was 7.00 to 7.30.

Q: And the pKi (VIM-2; [7])?
A: Its pKi is 6.82 to 7.30.

Q: What about the pKi (IMP-1; comparative study bands, read-out: Ki IMP-1 (comparative study)) of the same compound?
A: Its pKi is 5.30 to 6.22.

Q: And the pKi (IMP-1; [8])?
A: The pKi was 5.00 to 6.00.

Q: What about the “MIC of meropenem in the presence of the compound, K. pneumoniae NTBC104” value [4] of the same compound?
A: The value was 4 mg/L.

Q: And the “Stability in human plasma, % remaining” value ([1]; after 2 hours)?
A: The value was 73% remaining after 2 hours.

Q: What about the fraction unbound at 5 h, 10 μM [2] of the same compound?
A: The fraction unbound at 5 h, 10 μM was 0.19.

Q: What about the “Log10 reduction in CFUs compared to meropenem alone” value (K. pneumoniae NTBC104) of the same compound?
A: The value was 1.6 Log10.

Q: With `N=C(N)NCC(=O)Nc1ccc(S(=O)(=O)Nc2scnc2C(=O)O)cc1F` [Example 7, 5-[[3-fluoro-4-[(2-guanidinoacetyl)amino]phenyl]sulfonylamino]thiazole-4-carboxylic acid] as the compound, how does the pKi (NDM-1; [5]) read?
A: Its pKi is 6.70 to 7.30.

Q: What about the pKi (VIM-1; [6]) of the same compound?
A: The pKi was 6.30 to 6.70.

Q: And the pKi (VIM-2; [7])?
A: Its pKi is 6.82 to 7.30.

Q: What about the pKi (IMP-1; [8]) of the same compound?
A: The pKi was 5.00 to 6.00.

Q: And the “Stability in human plasma, % remaining” value ([1]; after 5 hours)?
A: The value was 100% remaining after 5 hours.

Q: What about the fraction unbound at 5 h, 10 μM [2] of the same compound?
A: Its fraction unbound at 5 h, 10 μM is 0.392.

Q: What about the AUC [3] of the same compound?
A: The AUC was 1.04 µg·h/mL.

Q: What about the C0 [3] of the same compound?
A: The C0 was 1.81 µg/mL.

Q: And the clearance [3]?
A: Its clearance is 0.96 L/h/kg.

Q: What about the “cleared from the blood slower than Compound A” value ([3]; same dosage, mice) of the same compound?
A: The value was “about 50 fold”.

Q: And the “exposure (AUC) compared to Compound A” value ([3]; same dosage, mice)?
A: The value was greater than 100 fold.

Q: What about the “maximum concentration compared to Compound A” value ([3]; same dosage, mice) of the same compound?
A: The value was greater than 100 fold.

Q: And the “Log10 reduction in CFUs compared to meropenem alone” value (K. pneumoniae NTBC104)?
A: The value was 1.7 Log10.
